Values of other authors as cited in patent US20110081416A1, “ORDERED MESOPOROUS SILICA MATERIAL” (FORMAC Pharmaceuticals N.V., priority 2008, published 2011).

Tests used:
[1] = not given; remark: listed apart in the source
[2] = Table 3, acids with a pKa of less than 2

SMILES: C=CC[C@@H]1/C=C(\C)C[C@H](C)C[C@H](OC)[C@H]2O[C@@](O)(C(=O)C(=O)N3CCCC[C@H]3C(=O)O[C@H](/C(C)=C/[C@@H]3CC[C@@H](O)[C@H](OC)C3)[C@H](C)[C@@H](O)CC1=O)[C@H](C)C[C@@H]2OC [Tacrolimus]
- absolute bioavailability (5 mg dose taken twice a day): approximately 17%
- solubility in ethanol (in words) ([1]; ethanol): freely soluble
- solubility in methanol and chloroform (in words) ([1]; methanol and chloroform): very soluble
- solubility in water (in words) [1]: practically insoluble

SMILES: O=S(=O)(O)NC1CCCCC1 [cyclamic acid]
- pKa [2]: 1.90

SMILES: NC(=O)N1c2ccccc2C=Cc2ccccc21 [Carbamazepine, 5H-dibenz[b,f]azepine-5-carboxamide]
- solubility in alcohol and acetone (in words) ([1]; alcohol and acetone): soluble
- solubility in water (in words) [1]: practically insoluble

SMILES: O=S(O)O [sulfurous acid]
- pKa [2]: 1.81

SMILES: CC(=O)O[C@H]1C(=O)[C@@]2(C)[C@H]([C@H](OC(=O)c3ccccc3)[C@]3(O)C[C@H](OC(=O)[C@H](O)[C@@H](NC(=O)c4ccccc4)c4ccccc4)C(C)=C1C3(C)C)[C@]1(OC(C)=O)CO[C@@H]1C[C@@H]2O [Paclitaxel]
- solubility in water (in words) [1]: insoluble

SMILES: CCC(C)n1ncn(-c2ccc(N3CCN(c4ccc(OCC5COC(Cn6cncn6)(c6ccc(Cl)cc6Cl)O5)cc4)CC3)cc2)c1=O (stereo not shown) [Itraconazole]
- solubility in water (in words) [1]: poorly soluble

SMILES: C#C[C@]1(O)CC[C@H]2[C@@H]3CCC4=Cc5oncc5C[C@]4(C)[C@H]3CC[C@@]21C [Danazol, 17a-Pregna-2,4-dien-20-yno[2,3-d]-isoxazol-17-ol]
- increase in plasma concentration on doubling the dose (doubling the dose): 30-40%
- half-life (in vivo): 4 to 5 h
- time of peak (plasma) concentrations (oral): ≤ 2 h
